Reference: ChEMBL document CHEMBL1201862, “PubChem BioAssay data set” (2004)
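Step 1: Grow cells in 96-well plates. Step 2: Expose to compound for 48 hours at 5 concentrations. Step 3: Interpolate endpoints linearly; if unreached, use highest concentration. Abbreviation: GI50, concentration required for 50% inhibition of growth.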 The source made the active and inactive calls. No stated cut-off is given here; in the data, active = GI50 up to about 1.1 µM and inactive = higher.

How the values were obtained:
Test in all cases: DTP human tumour cell line panel, 48 h
MDA-N = test system: MDA-N
HCT-116 = test system: HCT-116
HL-60 = test system: HL-60
SR = test system: SR
RPMI-8226 = test system: RPMI-8226
MDA-MB-231 = test system: MDA-MB-231
UACC-257 = test system: UACC-257
PC-3 = test system: PC-3
OVCAR-4 = test system: OVCAR-4
A549 = test system: A549
SW-620 = test system: SW-620
SK-MEL-28 = test system: SK-MEL-28
ACHN = test system: ACHN
BT-549 = test system: BT-549
UO-31 = test system: UO-31
NCI-H23 = test system: NCI-H23
SF-268 = test system: SF-268
M14 = test system: M14
T47D = test system: T47D

Measured: GI50

CC(C)(C)OC(=O)CN1CCNCCN(CC(=O)OC(C)(C)C)CCNCC1
inactive: MDA-N 65.6 µM | HCT-116 26.2 µM | HL-60 36.2 µM | SR 26.9 µM | RPMI-8226 70 µM | MDA-MB-231 > 100 µM | UACC-257 > 100 µM | PC-3 > 100 µM | OVCAR-4 > 100 µM | A549 82 µM | SW-620 > 100 µM | SK-MEL-28 > 100 µM | ACHN > 100 µM | BT-549 > 100 µM | UO-31 > 100 µM

CC(C)(C)OC(=O)NC(Cc1ccc(O)cn1)C(N)=O (stereo not given)
inactive: MDA-N > 100 µM | HCT-116 > 100 µM | HL-60 > 100 µM | SR > 100 µM | RPMI-8226 > 100 µM | MDA-MB-231 > 100 µM | UACC-257 > 100 µM | PC-3 > 100 µM | OVCAR-4 > 100 µM | NCI-H23 > 100 µM | A549 > 100 µM | SF-268 > 100 µM | SW-620 > 100 µM | SK-MEL-28 > 100 µM | ACHN > 100 µM | BT-549 > 100 µM | UO-31 > 100 µM

O=C(Cc1ccccc1)c1ccc2[nH]c(=O)oc2c1
inactive: MDA-N 39.3 µM | HCT-116 43.8 µM | HL-60 50.4 µM | SR 38.3 µM | RPMI-8226 9.23 µM | MDA-MB-231 36.1 µM | UACC-257 43.2 µM | PC-3 41.3 µM | M14 47 µM | NCI-H23 51.3 µM | SF-268 16.5 µM | SW-620 52.1 µM | SK-MEL-28 28.6 µM | ACHN 41.4 µM | BT-549 48.6 µM

CCOC(=O)N/N=C(\Cc1ccccc1)OCC
inactive: MDA-N > 100 µM | HCT-116 > 100 µM | SR > 100 µM | RPMI-8226 > 100 µM | MDA-MB-231 > 100 µM | UACC-257 > 100 µM | PC-3 > 100 µM | OVCAR-4 > 100 µM | M14 > 100 µM | NCI-H23 > 100 µM | A549 > 100 µM | SF-268 > 100 µM | SW-620 > 100 µM | ACHN > 100 µM | BT-549 > 100 µM | UO-31 > 100 µM

COc1cccc(/C=C2/Sc3scc(-c4ccccc4)[n+]3C2=O)c1O
inactive: HCT-116 14.9 µM | HL-60 11.9 µM | MDA-MB-231 23.5 µM | UACC-257 19.7 µM | PC-3 32.1 µM | OVCAR-4 29.6 µM | M14 26 µM | NCI-H23 17.3 µM | A549 38.8 µM | SF-268 41.2 µM | SW-620 18.1 µM | SK-MEL-28 17.3 µM | ACHN 18.4 µM | BT-549 21.7 µM | UO-31 13.3 µM

CN1CCC/C1=N\C#N
inactive: MDA-N > 100 µM | HCT-116 > 100 µM | HL-60 > 100 µM | SR > 100 µM | RPMI-8226 > 100 µM | MDA-MB-231 > 100 µM | PC-3 > 100 µM | OVCAR-4 > 100 µM | M14 > 100 µM | NCI-H23 > 100 µM | A549 > 100 µM | SF-268 > 100 µM | SW-620 > 100 µM | SK-MEL-28 > 100 µM | ACHN > 100 µM | UO-31 > 100 µM | T47D > 100 µM

O=C(Nc1cccc([N+](=O)[O-])c1)c1nnn(-c2cccc([N+](=O)[O-])c2)c1O
inactive: MDA-N > 100 µM | HCT-116 > 100 µM | HL-60 > 100 µM | SR > 100 µM | RPMI-8226 > 100 µM | MDA-MB-231 > 100 µM | UACC-257 > 100 µM | PC-3 > 100 µM | M14 > 100 µM | NCI-H23 > 100 µM | A549 > 100 µM | SF-268 > 100 µM | SW-620 > 100 µM | SK-MEL-28 > 100 µM | ACHN > 100 µM | UO-31 67.5 µM | T47D > 100 µM

COc1cc([C@@H]2OC[C@@H]3C(c4cc(OC)c5c(c4)OCO5)OC[C@@H]32)cc(OC)c1OC (stereo not given in full)
inactive: HCT-116 > 100 µM | HL-60 > 10 µM | SR 89.1 µM | RPMI-8226 49.5 µM | MDA-MB-231 > 100 µM | UACC-257 > 100 µM | PC-3 50.1 µM | OVCAR-4 92.5 µM | M14 > 100 µM | NCI-H23 > 100 µM | A549 > 100 µM | SF-268 > 100 µM | SW-620 > 100 µM | SK-MEL-28 > 100 µM | ACHN > 100 µM | BT-549 57.9 µM | UO-31 > 100 µM | T47D 46.1 µM
